Source: US20250354970A1, “SYSTEMS, METHODS, AND APPARATUSES FOR CHARACTERIZING RELEASE PROFILES FOR LONG-ACTING INJECTABLE MEDICATIONS” (Gilead Sciences, Inc., priority 2024, published 2025)

Assay: Unit input response, intravenous bolus plasma concentration
Type: in vivo
Settings: human, read-out: Plasma Concentration of API A
Description: In predicting plasma concentration time profiles, we used two steps. First, we time scaled in vitro release profiles to use as our reference. Second, we obtained convolution of time-scaled in vitro release profile with unit input response (UIR) we obtained using intravenous bolus dose profile in a physiologically based pharmacokinetic model (PBPK).
FIG. 18 illustrates use of convolution of time-scaled in vitro release profile data (panel A, Table 4) with unit input response (UIR) obtained using an intravenous bolus dose (panel B, Table 5) to generate predictive plasma concentration-time profiles (panel C, Table 6). Panel A includes time-scaled mean in vitro release profiles of various solution-based subcutaneous long acting injectables of API. Panel C includes observed versus predicted mean plasma concentration-time profiles in humans for various solution-based subcutaneous long acting injectables of API A.

concentration at 0 days (0.00 days): 0 ng/mL | concentration at 0.04 days (0.04 days): 162 ng/mL | concentration at 0.08 days (0.08 days): 27.7 ng/mL | concentration at 0.17 days (0.17 days): 14 ng/mL | concentration at 0.25 days (0.25 days): 7.73 ng/mL | concentration at 0.33 days (0.33 days): 5.71 ng/mL | concentration at 0.5 days (0.50 days): 4.68 ng/mL | concentration at 1 days (1.00 days): 4.33 ng/mL | concentration at 2 days (2.00 days): 4.37 ng/mL | concentration at 3 days (3.00 days): 4.29 ng/mL | concentration at 5 days (5.00 days): 3.49 ng/mL | concentration at 7 days (7.00 days): 3.45 ng/mL | concentration at 9 days (9.00 days): 2.84 ng/mL | concentration at 11 days (11.00 days): 2.61 ng/mL | concentration at 14 days (14.00 days): 2.33 ng/mL | concentration at 20.92 days (20.92 days): 1.71 ng/mL | concentration at 27.92 days (27.92 days): 1.1 ng/mL | concentration at 34.96 days (34.96 days): 0.71 ng/mL | concentration at 41.96 days (41.96 days): 0.43 ng/mL | concentration at 55.96 days (55.96 days): 0.25 ng/mL
SMILES: CC(C)(C#Cc1ccc(-c2ccc(Cl)c3c(NS(C)(=O)=O)nn(CC(F)(F)F)c23)c([C@H](Cc2cc(F)cc(F)c2)NC(=O)Cn2nc(C(F)(F)F)c3c2C(F)(F)[C@@H]2C[C@H]32)n1)S(C)(=O)=O [API A, Lenacapavir]
